Source: US20080085859A1, “Drug Promoting Ceramide Transport, Base Sequence for Producing the Drug, Method of Measuring Activity of Promoting Ceramide Release and Method of Measuring Activity of Promoting Intermembrane Ceramide Transfer” (JAPAN SCIENCE AND TECHNOLOGY AGENCY, priority 2003, published 2008)

B1: FL-hCERT: hCERT with FL (FLAG) sequence added to amino end (protein, UniProt Q9Y5P4 1-624, looked up)
Ceramide transfer protein: MSDNQSWNSSGSEEDPETESGPPVERCGVLSKWTNYIHGWQDRWVVLKNNALSYYKSEDETEYGCRGSICLSKAVITPHDFDECRFDISVNDSVWYLRAQDPDHRQQWIDAIEQHKTESGYGSESSLRRHGSMVSLVSGASGYSATSTSSFKKGHSLREKLAEMETFRDILCRQVDTLQKYFDACADAVSKDELQRDKVVEDDEDDFPTTRSDGDFLHSTNGNKEKLFPHVTPKGINGIDFKGEAITFKATTAGILATLSHCIELMVKREDSWQKRLDKETEKKRRTEEAYKNAMTELKKKSHFGGPDYEEGPNSLINEEEFFDAVEAALDRQDKIEEQSQSEKVRLHWPTSLPSGDAFSSVGTHRFVQKPYSRSSSMSSIDLVSASDDVHRFSSQVEEMVQNHMTYSLQDVGGDANWQLVVEEGEMKVYRREVEENGIVLDPLKATHAVKGVTGHEVCNYFWNVDVRNDWETTIENFHVVETLADNAIIIYQTHKRVWPASQRDVLYLSVIRKIPALTENDPETWIVCNFSVDHDSAPLNNRCVRAKINVAMICQTLVSPPEGNQEISRDNILCKITYVANVNPGGWAPASVLRAVAKREYPKFLKRFTSYVQEKTAGKPILF
modifications: N-terminal FLAG tag

Key:
Format in all cases: cell-based, Chinese hamster
[1] = test system: CHO-K1 cell; assay: influence of ceramide transport inhibitor on SM synthesis, [14C] serine labeling; settings: 1 μM, FIG. 8
Description: (§1) CHO-K1 cell, LY-A2 cell, and LY-A2/hCERT cell were inoculated at the cell density of 1.0×10^6 per culture dish having the 60-mm diameter, and cultured at 33° C. overnight. Subsequently, it was exchanged with […] of Nutridoma medium, after [^14C] serine (0.75 μCi) or [^14C] choline (1.0 μCi) have been added, in the case where [^14C] serine is added, it was cultured for 2 hours, and in the case where [^14C] choline is added, it was cultured at 33° C. for 5 hours. However, in the case where the influence on (1R, 3R) HPA-12 is analyzed, after it was pretreated at […] for 15 minutes in 1.5 mL of Nutridoma medium to which 1 μM of (1R,3R) HPA-12 has been added (in control experiment, dimethylsulfoxide used for dissolving a drug was added at the concentration corresponding to 0.01% of the final concentration), [^14C] serine was added, and cultured at 33° C. for 2 hours. After the cell was washed twice in 2 mL of cooled PBS, dissolved in 900 μL of sodium dodecyl sulfate (SDS), then, 800 μL and 20 μL of dissolved matter were used for determining lipid extraction and protein concentration. For the purpose of analyzing lipid labeled with [^14C] serine, the lipid was separated by TLC by making acetic methyl/n-propanol/chloroform/methanol/0.25% KCl (25:25:25 10:9, volume ratio) development solvent. The radioactive lipid separated on the plate was detected and analyzed by an image analyzer.
(§2) The present inventors have already found a selective inhibitor with respect to ATP dependent ceramide transport pathway (J. Biol. Chem. 276,43994-44002, 2001). For the purpose of examining whether or not ceramide transport pathway recovered by introducing hCERT is a transport pathway which is sensitive to (1R,3R) HPA-12, the analysis of the influence of (1R, 3R) HPA-12 treatment with respect to SM biosynthesis was performed by performing a lipid metabolism labeling experiment using radioactive serine.

[2] = test system: LY-A2 cell; assay: as above; settings: FIG. 8
Description: as §1, §2

[3] = test system: LY-A2 cell; assay: MCD resistance by counting the number of survived cells; settings: LY-A2 cell infected with expressing retrovirus, FIGS. 10(A), 12(A)
Description: The method of selecting function recovery strain used herein was performed on the basis of the knowledge that a cell whose SM content has been reduced becomes highly sensitive to cholesterol drawing reagent/methylcyclodextrin (MCD), and the cell whose SM content has been recovered recovers the resistance to MCD. As described in the foregoing paragraph, after the infected cell that has been seeded and cultured at 33° C. overnight was washed twice in 10 mL of serum-free F12 medium, it has been at 37° C. for one hour in 25 mL. After the culture dish was washed three times with 12 mL of PBS, 25 mL of F12/NBS was added and cultured at 33° C. for 7 to 10 days. […]
It has been validated whether or not CERT protein and CERTL which is a large separate splicing type product having 26 amino acid residue complements the deletion of LY-A cell. […] The MCD resistance of the obtained (LY-A2+FL-hCERT) cell and ((LY-A2+FL-hCERTL) cell were measured by counting the number of survived cells in accordance with the method described in <Method of selecting MCD resistance recovery strain>. Moreover, the MCD resistance of (LY-A2+empty vector) cell, CHO-K1 cell and LY-A2 cell obtained by infecting LY-A2 cell using pLIB vector in which gene has not been inserted were also similarly measured. The results are indicated in FIG. 10(A). […]

Molecule	inhibition of SM synthesis [1]	inhibition of SM synthesis ([2]; 1 μM, cell printed as LY-A2 cell (first sentence of b175))	additional inhibition of SM biosynthesis ([2]; LY-A2 cell where HPA-12-sensitive pathway is impaired)	MCD resistance [3]
CCCCCCCCCCCC(=O)N[C@@H](CO)C[C@@H](O)c1ccccc1 [(1R,3R) HPA-12, (1R,3R)N-(3-hydroxy-1-hydroxymethyl-3-phenyprol) dodecane amide]	significantly inhibited	significantly inhibited	another additional inhibition was not seen	–
B1	–	–	–	significantly acquired the MCD resistance
